One may read the Kp as tissue or fluid exposure divided by exposure in the circulation.

One series deals with CDK4/Cyclin D1 (Homo sapiens (Human), UniProt P11802). The experiment in a line: CDK4/CyclinD1 enzymatic activity assay (TR-FRET). The series is classed as biochemical. The conditions noted are these: CDK4/CyclinD1 1 nM, ATP 2 mM, read-out: CDK4_D1 IC50. A digest of the protocol:
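Insect-cell CDK4/Cyclin D1 (1 nM) with ULight-4E-BP1 (100 nM) and 2 mM ATP in HEPES pH 7.4 buffer, preincubated 20 min with compound (9-dose, 3-fold dilutions); 10 mM MgCl2 started the reaction, run 60 min at 37 °C. EDTA/Eu-anti-phospho-4E-BP1 TR-FRET detection; IC50 from 4-parameter Hill fit.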
In general terms: In TR-FRET formats the signal depends on donor and acceptor labels being close together.

The next series addresses CDK6/Cyclin D1 (Homo sapiens (Human), UniProt Q00534). The experiment in a line: CDK6/CyclinD1 enzymatic activity assay (TR-FRET). Particulars: CDK6/Cyclin D1 1 nM, ATP 250 μM, read-out: CDK6_D1 IC50. Format: biochemical. A digest of the protocol:
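Insect-cell-expressed CDK6/Cyclin D1 (1 nM) phosphorylated ULight-4E-BP1 (100 nM) with 250 μM ATP in HEPES pH 7.4 buffer. After 20 min compound preincubation, reactions were started with 10 mM MgCl2 and run 60 min at 37 °C. EDTA-quenched samples were read by TR-FRET with Eu-anti-P-4E-BP1; IC50 from 9-dose 4-parameter fits.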

The subject of series [1] is MCF7 adenocarcinoma cell line. The experiment in a line: Cell proliferation studies in MCF7 cells (ATP-Lite). The series is classed as cell-based. The conditions noted are these: 10 days incubation, cell viability by ATP-Lite luminescence, read-out: PROLIFERATION_CTG_MCF7 IC50. The procedure, abridged: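 MCF7 cells, seeded at 100 or 200 cells/well, were exposed for 10 days at 37 °C to a 9-point, 3-fold dilution series in quadruplicate, with media exchange and re-dosing on day 5. Viability was read by ATP-Lite luminescence, normalized to background and DMSO, and fitted for IC50.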

The nature of series [2]: Brain-to-plasma ratio determination in Sprague-Dawley rats. The series is classed as in vivo. The conditions noted are these: male Sprague-Dawley rats, four hours after a single oral dose (3, 4, 5, or 10 mg/kg); for Kp at 4 h: rat. Here is the method:
Example B: Brain-to-Plasma Ratio Determination in Sprague-Dawley Rats
The brain-to-plasma ratio (Kp) was determined in male Sprague-Dawley rats (7-9 weeks old) four hours after a single oral dose. Rats were acclimated and given free access to standard rodent chow and water throughout the entire study. Test articles were formulated as a solution at 0.3, 0.4, 0.5, or 1.0 mg/mL in a vehicle comprised of 10:15:75 (v:v:v) dimethylacetamide (DMA):Solutol HS15:water and delivered orally at a rate of 10 mL/kg to three rats to achieve final doses of 3, 4, 5, or 10 mg/kg, respectively. At 4 hours post-dose, blood samples were collected via jugular vein cannula into tubes containing K2EDTA as the anticoagulant and stored on ice. Blood samples were then centrifuged at 4° C. at 6000 rpm for 5 minutes, and the resulting plasma was placed into tubes and stored frozen at −80° C. until analysis. Whole brain samples were also collected at 4 hours post-dose. The weight of each brain was measured and recorded, and samples were immediately stored on dry ice. Brain samples were then transferred to storage at −80° C. until analysis.
Prior to analysis, brain samples were combined with water (4 mL/1 gram of brain) and homogenized. Prior to injection, plasma and brain homogenate samples and standards were prepared for analysis by precipitation with acetonitrile or 1:1 (v:v) methanol:acetonitrile. Samples were then thoroughly mixed, centrifuged at 4000 rpm for 15 minutes, and the resulting supernatant was transferred for analysis. Test article concentrations in plasma and brain homogenate were then determined by LC-MS/MS and quantified against calibration standards prepared to known concentrations in matched blank (analyte-free) biological matrix. The Kp was then determined by dividing the dilution-corrected brain concentration by the plasma concentration from each rat. A brain density of 1 gram/mL was assumed for all calculations.

SMILES strings stand for the structures. Where two headings read alike, the source gives them in different places.

Chain of CDK6/Cyclin D1 (Q00534 whole entry): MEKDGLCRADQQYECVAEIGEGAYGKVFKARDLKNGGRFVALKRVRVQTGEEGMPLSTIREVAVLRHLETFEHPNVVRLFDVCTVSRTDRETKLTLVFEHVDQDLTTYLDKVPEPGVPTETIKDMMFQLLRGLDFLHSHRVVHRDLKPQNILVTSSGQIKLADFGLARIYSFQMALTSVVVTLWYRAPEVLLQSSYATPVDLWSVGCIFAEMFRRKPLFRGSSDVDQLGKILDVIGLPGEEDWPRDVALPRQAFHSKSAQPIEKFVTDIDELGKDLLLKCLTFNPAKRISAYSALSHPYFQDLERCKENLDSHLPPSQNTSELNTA
Chain of CDK6/Cyclin D1 (P24385 whole entry partner): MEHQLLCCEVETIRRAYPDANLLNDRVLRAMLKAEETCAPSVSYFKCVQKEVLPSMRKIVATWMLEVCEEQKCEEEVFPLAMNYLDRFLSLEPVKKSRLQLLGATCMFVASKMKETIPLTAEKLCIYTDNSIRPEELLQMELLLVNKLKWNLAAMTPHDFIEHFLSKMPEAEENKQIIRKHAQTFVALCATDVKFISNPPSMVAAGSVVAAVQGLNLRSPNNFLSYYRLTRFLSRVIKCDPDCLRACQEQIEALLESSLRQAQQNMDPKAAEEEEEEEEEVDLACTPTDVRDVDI
Chain of CDK4/Cyclin D1 (P11802 whole entry): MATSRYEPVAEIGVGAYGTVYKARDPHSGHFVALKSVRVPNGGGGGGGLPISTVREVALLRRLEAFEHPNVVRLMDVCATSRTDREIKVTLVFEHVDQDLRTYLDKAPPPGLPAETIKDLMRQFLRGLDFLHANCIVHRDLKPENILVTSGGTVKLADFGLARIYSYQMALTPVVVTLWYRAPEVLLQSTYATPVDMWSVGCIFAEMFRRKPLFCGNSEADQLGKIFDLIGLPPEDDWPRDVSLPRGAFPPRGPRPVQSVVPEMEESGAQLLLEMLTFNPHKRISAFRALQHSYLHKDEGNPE
Chain of CDK4/Cyclin D1 (P24385 whole entry partner): as the sequence (P24385 whole entry partner) above

With `CN1CCC(c2ccc(Nc3ncc(F)c(-c4cc5c(s4)C4(CCCC4)CN(C)C5=O)n3)nc2)CC1` [Example 2, 2′-(5-Fluoro-2-((5-(1-methylpiperidin-4-yl)pyridin-2-yl)amino)pyrimidin-4-yl)-5′-methyl-5′,6′-dihydro-4′H-spiro[cyclopentane-1,7′-thieno[3,2-c]pyridin]-4′-one], the IC50 on CDK4/Cyclin D1 is at most 20 nM; at CDK6/Cyclin D1, at most 20 nM; in series [1] (Homo sapiens, 240 h), 20 to 200 nM. For the same molecule, the Kp at 4 h in series [2] was in the range of 1 to 3.

`CCN1CCN(c2ccc(Nc3ncc(F)c(-c4cc5c(s4)C4(CCCC4)CN(C)C5=O)n3)nc2)CC1` [Example 3, 2′-(2-((5-(4-Ethylpiperazin-1-yl)pyridin-2-yl)amino)-5-fluoropyrimidin-4-yl)-5′-methyl-5′,6′-dihydro-4′H-spiro[cyclopentane-1,7′-thieno[3,2-c]pyridin]-4′-one]: the IC50 is at most 20 nM on CDK4/Cyclin D1; at most 20 nM on CDK6/Cyclin D1; 20 to 200 nM in series [1] (Homo sapiens, 240 h). For the same molecule, the Kp at 4 h in series [2] was at least 3.

On to `CCN1CC2(C1)CN(c1ccc(Nc3ncc(F)c(-c4cc5c(s4)C4(CCCCC4)CN(C)C5=O)n3)nc1)C2` [Example 4, 2′-(2-((5-(6-Ethyl-2,6-diazaspiro[3.3]heptan-2-yl)pyridin-2-yl)amino)-5-fluoropyrimidin-4-yl)-5′-methyl-5′,6′-dihydro-4′H-spiro[cyclohexane-1,7′-thieno[3,2-c]pyridin]-4′-one], for which the IC50 on CDK4/Cyclin D1 was at most 20 nM; at CDK6/Cyclin D1 it was 20 to 200 nM; in series [1] (Homo sapiens, 240 h), 20 to 200 nM. The concentration ratio (Kp) at 4 h in series [2] is 1 to 3.

Take `Cc1c(-c2nc(Nc3ccc(C4CCN(C)CC4)cn3)ncc2F)sc2c1C(=O)N(C)C21CC1` [Example 6, 2′-(5-Fluoro-2-((5-(1-methylpiperidin-4-yl)pyridin-2-yl)amino)pyrimidin-4-yl)-3′,5′-dimethylspiro[cyclopropane-1,6′-thieno[2,3-c]pyrrol]-4′(5′H)-one]: the IC50 at CDK4/Cyclin D1 is at most 20 nM; at CDK6/Cyclin D1, at most 20 nM; in series [1] (Homo sapiens, 240 h), 20 to 200 nM. Besides, the partition ratio (Kp) at 4 h in series [2] lay within 1 to 3.

In the case of `CCN1C(=O)c2c(sc(-c3nc(Nc4ccc(C5CCN(C)CC5)cn4)ncc3F)c2C)C12CC2` [Example 7, 5′-Ethyl-2′-(5-fluoro-2-((5-(1-methylpiperidin-4-yl)pyridin-2-yl)amino)pyrimidin-4-yl)-3′-methylspiro[cyclopropane-1,6′-thieno[2,3-c]pyrrol]-4′(5′H)-one], the IC50 at CDK4/Cyclin D1 is at most 20 nM; at CDK6/Cyclin D1, at most 20 nM; in series [1] (Homo sapiens, 240 h), 20 to 200 nM. In addition, the Kp at 4 h in series [2] fell in the range of 1 to 3.

As to `CCN1CC2(C1)CN(c1ccc(Nc3ncc(F)c(-c4sc5c(c4C)C(=O)N(C)C54CC4)n3)nc1)C2` [Example 12, 2′-(2-((5-(6-Ethyl-2,6-diazaspiro[3.3]heptan-2-yl)pyridin-2-yl)amino)-5-fluoropyrimidin-4-yl)-3′,5′-dimethylspiro[cyclopropane-1,6′-thieno[2,3-c]pyrrol]-4′(5′H)-one], the IC50 at CDK4/Cyclin D1 was at most 20 nM; on CDK6/Cyclin D1, at most 20 nM; in series [1] (Homo sapiens, 240 h) it was at most 20 nM. Also, the concentration ratio (Kp) at 4 h in series [2] was under 1.

Consider `Cc1c(-c2nc(Nc3ccc(C4CCN(C(C)C)C4)cn3)ncc2F)sc2c1C(=O)N(C)C21CC1` (stereo not drawn) [Example 16, 2′-(5-Fluoro-2-((5-(1-isopropylpyrrolidin-3-yl)pyridin-2-yl)amino)pyrimidin-4-yl)-3′,5′-dimethylspiro[cyclopropane-1,6′-thieno[2,3-c]pyrrol]-4′(5′H)-one], for which the IC50 was at most 20 nM at CDK4/Cyclin D1; at most 20 nM on CDK6/Cyclin D1; 20 to 200 nM in series [1] (Homo sapiens, 240 h). Further, the concentration ratio (Kp) at 4 h in series [2] was under 1.

As to `CN1CCC(c2ccc(Nc3ncc(F)c(-c4cc5c(s4)C4(CCCC4)N(C)C5=O)n3)nc2)CC1` [Example 20, 2′-(5-Fluoro-2-((5-(1-methylpiperidin-4-yl)pyridin-2-yl)amino)pyrimidin-4-yl)-5′-methylspiro[cyclopentane-1,6′-thieno[2,3-c]pyrrol]-4′(5′H)-one], the IC50 on CDK4/Cyclin D1 was at most 20 nM; at CDK6/Cyclin D1, at most 20 nM; in series [1] (Homo sapiens, 240 h), at most 20 nM. Moreover, the concentration ratio (Kp) at 4 h in series [2] was at least 3.

With `CCN1CC2(C1)CN(c1ccc(Nc3ncc(F)c(-c4cc5c(s4)C4(CCCC4)N(C)C5=O)n3)nc1)C2` [Example 24], the IC50 on CDK4/Cyclin D1 is at most 20 nM; on CDK6/Cyclin D1 it was at most 20 nM; in series [1], 20 to 200 nM. For the same molecule, the Kp result in series [2] is given as “++ (a “++” denotes 1.0 ≤ Kp < 3.0)”.

For the molecule `Cc1c(-c2nc(Nc3ccc(C4CCN(C)CC4)cn3)ncc2F)sc2c1C(=O)N(C)C21CCCC1` [Example 25, 2′-(5-Fluoro-2-((5-(1-methylpiperidin-4-yl)pyridin-2-yl)amino)pyrimidin-4-yl)-3′,5′-dimethylspiro[cyclopentane-1,6′-thieno[2,3-c]pyrrol]-4′(5′H)-one], the IC50 at CDK4/Cyclin D1 is at most 20 nM; at CDK6/Cyclin D1, at most 20 nM; in series [1] (Homo sapiens, 240 h), at most 20 nM. Moreover, the Kp at 4 h in series [2] fell in the range of 1 to 3.

`Cc1c(-c2nc(Nc3ccc(C4CCN(C)CC4)cn3)ncc2F)sc2c1C(=O)N(C)CC21CC1` [Example 28]: the IC50 is at most 20 nM at CDK4/Cyclin D1; at most 20 nM at CDK6/Cyclin D1; 20 to 200 nM in series [1] (Homo sapiens, 240 h). For the same molecule, in series [2], the Kp at 4 h was at least 3.

For the molecule `CN1CCC(c2ccc(Nc3ncc(F)c(-c4cc5c(s4)C4(CC4)CN(C)C5=O)n3)nc2)CC1` [Example 29, 2′-(5-Fluoro-2-((5-(1-methyl-piperidin-4-yl)pyridin-2-yl)amino)pyrimidin-4-yl)-5′-methyl-5′,6′-dihydro-4′H-spiro[cyclo-propane-1,7′-thieno[3,2-c]pyridin]-4′-one], the IC50 was at most 20 nM on CDK4/Cyclin D1; 20 to 200 nM on CDK6/Cyclin D1; 20 to 200 nM in series [1] (Homo sapiens, 240 h). The Kp at 4 h in series [2] was 1 to 3.

For the molecule `Cc1c(-c2nc(Nc3ccc(N4CC5(CCN(C)C5)C4)cn3)ncc2F)sc2c1C(=O)N(C)CC21CC1` [Example 35], the IC50 on CDK4/Cyclin D1 is at most 20 nM; at CDK6/Cyclin D1, at most 20 nM; in series [1] (Homo sapiens, 240 h), at most 20 nM. Moreover, in series [2], the partition ratio (Kp) at 4 h was 1 to 3.

With `CCN1C[C@H]2CN(c3ccc(Nc4ncc(F)c(-c5sc6c(c5C)C(=O)N(C)CC65CC5)n4)nc3)C[C@@H]2C1` [Example 39, 2′-(2-((5-((3aS,6aS)-5-Ethylhexahydropyrrolo[3,4-c]pyrrol-2(1H)-yl)pyridin-2-yl)amino)-5-fluoropyrimidin-4-yl)-3′,5′-dimethyl-5′,6′-dihydro-4′H-spiro[cyclopropane-1,7′-thieno[3,2-c]pyridin]-4′-one], the IC50 is at most 20 nM on CDK4/Cyclin D1; at most 20 nM on CDK6/Cyclin D1; 20 to 200 nM in series [1] (Homo sapiens, 240 h). The concentration ratio (Kp) at 4 h in series [2] fell in the range of 1 to 3.

With `CCN1CC2(C1)CN(c1ccc(Nc3ncc(C)c(-c4cc5c(s4)C4(CC4)CN(C)C5=O)n3)nc1)C2` [Example 41, 2-[2-[[5-(6-Ethyl-2,6-diazaspiro[3.3]heptan-2-yl)pyridin-2-yl]amino]-5-methylpyrimidin-4-yl]-5-methylspiro[6H-thieno[3,2-c]pyridine-7,1′-cyclopropane]-4-one], the IC50 on CDK4/Cyclin D1 is at most 20 nM; on CDK6/Cyclin D1, at most 20 nM; in series [1] (Homo sapiens, 240 h), at most 20 nM. Also, the Kp at 4 h in series [2] is under 1.
